The test system of one experiment is AD-MSC. In words: Tuj1 immunochemical assay, AD-MSC. To be noted: 10, 20 or 30 μM, 5 days. Type of experiment: cell-based, human. Here is the method:
(§1) To determine whether transdifferentiation into ciNSC5, neural progenitor cells, occurred similarly even in MSCs of different origins when human UCB-MSCs were treated with YJ101, YJ102, or YJ103 for 5 days, the expression of neuronal markers in differentiated ciNSC5 was confirmed by immunochemical assay using MSCs from human adipose-derived mesenchymal stem cells (AD-MSCs), human bone marrow-derived mesenchymal stem cells ([…]) and human umbilical cord blood-derived mesenchymal stem cells (UCB-MSCs; Promo Cells). Specifically, AD-MSC (StemPro™ Human Adipose-Derived Stem Cell, Gibco, Passage #6) was incubated in a MesenPRO RS™ medium, BM-MSC (ATCC, Passage #6) was incubated in a Mesenchymal Stem Cell Basal Medium for Adipose, Umbilical and Bone Marrow-derived MSC (Cat. PCS-500-030, ATCC) medium, and UCB-MSC (Promo Cell, Passage #6) was incubated in a CellCor™ CD MSC (Cat. YSP001, Xell Therapeutics) medium, and then dispensed at 2.1×10^4 cells/well in a 12-well plate with an 18 mm cover glass (circular) (DMSO control group was dispensed at 3.5×10^3 cells/well). […] The culture medium was removed, washed with PBS, and then fixed with 4% paraformaldehyde at room temperature for 10 minutes. After washed three times with PBS, the cells were permeabilized with PBS-T containing 0.5% Triton X-100 for 10 minutes, washed with PBS-T three times for 10 minutes each, and then blocked with a blocking solution (PBS-T containing 5% BSA and 5% goat serum) for 1 hour. Thereafter, the cells were treated with anti-Tuj1 antibody (Cat. 801201, BioLegend) diluted 1/5000 in a blocking solution and incubated at 4° C. overnight. The next day, the cells were washed 10 times for 10 minutes each with PBS-T, and then treated with anti-mouse IgG-cy3 diluted 1/2000 in a blocking solution, and incubated for 1 hour in dark conditions. Next, the cells were washed 10 times for 10 minutes each with PBS-T, mounted with a mounting solution containing DAPI, and then observed with a confocal microscope.

The target in experiment [1] is T1, CtBP1 (Homo sapiens, UniProt Q13363). In words: DARTS assay, CtBP1. Type of experiment: binding. Also noted: expressed in transfected cells; host or cells: human UCB-MSC (Kang Stem Cell), lysate. The note with it: for overexpressed CtBP1 (flag-CtBP1) protection from degradation by pronase (DARTS): FLAG-CtBP1 transfected UCB-MSC lysate, YJ101 (20 or M), YJ102 (20 or 30 μM), YJ103 (20 or 40 μM); for binding to CtBP1: human UCB-MSC. Here is the method:
To identify proteins binding to compounds of the present invention, YJ101 (Chemical Formula 1), YJ102 (Chemical Formula 2), and YJ103 (Chemical Formula 3), in human umbilical cord blood-derived mesenchymal stem cells (UCB-MSCs), DART assay was performed. Specifically, UCB-MSCs (Kang Stem Cell, Passage #6) were dispensed into a 100 mm culture dish and incubated in a KSB-3 medium (Cat. K3901, Kang Stem Cell) containing 10% FBS (Cat. 16000044), and then collected and washed with PBS. Thereafter, the cells were added with an IP50 lysis buffer [50 mM Tris-HCl (pH 7.4), 150 mM NaCl, 2 mM MgCl2, and 0.1% NP40], sonicated, and centrifuged at 13,000×g for 10 minutes at 4° C. to obtain the supernatant. The supernatant was added with 1/10 volume of 10×TNC buffer [500 mM Tris-HCl (pH 8.0), 500 mM NaCl, and 100 mM CaCl2)], and protein concentration was measured using a Bradford method. Thereafter, 9 μl of a cell lysate and 1 μl of YJ101 (20 or M), YJ102 (20 or 30 μM), or YJ103 (20 or 40 μM) were mixed in a microcentrifuge tube and incubated at room temperature for 1 hour. A control group was treated with 1 μl of DMSO. After incubation, 1 μl (1 mg/ml) of Pronase (Cat. 10 165 921 001, Roche) diluted to 1 mg/ml using a 1×TNC buffer was added to the microcentrifuge tube and incubated at 37° C. for 15 minutes. After incubation, ⅕ volume of a 5×SDS-PAGE loading buffer was added, heated at 100° C. for 5 minutes, and then SDS-PAGE and Coomassie blue staining were performed. In addition, UCB-MSCs were dispensed at 4×10^5 cells/ml in a 60 mm culture dish, and after 24 hours, 4 μg of FLAG-CtBP1 or FLAG-CtBP2 DNA was transfected using 4 μl of jetPRIME. After 48 hours, the cells were collected, and proteins were extracted and quantified using the same method as above. DARTS assay was performed with the cell lysate of CtBP1 and Y102 labeled with FLAG, and Western blot assay was performed with a flag antibody (Cat. F3165, Sigma).

Another experiment has as its system UCB-MSC (Promo Cell). In words: Tuj1 immunochemical assay, UCB-MSC (Promo Cell). Format: cell-based, human. The note with it: 10, 20 or 30 μM, 5 days. How it is done: as §1
Experiment [2] has as its system UCB-MSCs. In words: CellTiter-Glo proliferation assay. Format: cell-based, human. To be noted: 10, 20, or 40 μM; 3 or 5 days. Here is the method:
Thereafter, 100 μl of a CellTiter-Glo reagent prepared by mixing a CellTiter-Glo Buffer with a CellTiter-Glo substrate was added to each well of a 96-well plate, covered with a plate cover, and incubated at room temperature for 30 minutes.
A general note: ATP-based viability assays read luminescence as a measure of living cells.

For another experiment, the system named is BM-MSC. In words: Tuj1 immunochemical assay, BM-MSC. Type of experiment: cell-based, human. To be noted: 10, 20 or 30 μM, 5 days. How it is done: as §1
Experiment [3] concerns UCB-MSCs. In words: Tuj1 immunochemical assay, direct conversion of UCB-MSCs into ciNSC5. Format: cell-based, human. The note with it: 30 μM, 5 days; for expression of Tuj1: UCB-MSC. Here is the method:
Immunochemical assay was performed to confirm whether UCB-MSCs were transdifferentiated into ciNSC5, Tuj1-positive neural progenitor cells, by the compounds of the present invention, YJ101, YJ102, and YJ103. Specifically, UCB-MSCs were dispensed at 2.1×10^4 cells/well in a 12-well plate containing an 18 mm cover glass (a DMSO control group was dispensed at 3.5×10^3 cells/well). […] The culture medium was removed, washed with PBS, and then fixed with 4% paraformaldehyde at room temperature for 10 minutes. After washed three times with PBS, the cells were permeabilized with PBS-T containing 0.5% Triton X-100 for 10 minutes, washed with PBS-T three times for 10 minutes each, and then blocked with a blocking solution (PBS-T containing 5% BSA and 5% goat serum) for 1 hour. Thereafter, the cells were treated with anti-Tuj1 antibody (Cat. 801201, BioLegend) diluted 1/5000 in a blocking solution and incubated at 4° C. overnight. The next day, the cells were washed 10 times for 10 minutes each with PBS-T, and then treated with anti-mouse IgG-FITC diluted 1/500 in a blocking solution, and incubated for 1 hour in dark conditions. Next, the cells were washed 10 times for 10 minutes each with PBS-T, mounted with a mounting solution containing DAPI, and then observed with a confocal microscope.

The subject of another experiment is human UCB-MSCs. In words: Tuj1 immunochemical assay with CtBP inhibitors. Type of experiment: cell-based. How it is done:
To determine CtBP1-mediated ciNSC5 differentiation by YJ102 in human UCB-MSCs, a CTBP1 mechanism by treatment with NSC95397 or 4-methylthio-2-oxobutanoate (MTOB) was analyzed by immunochemical assay. Specifically, UCB-MSCs were dispensed at 2.1×10^4 cells/well in a 12-well plate containing an 18 mm cover glass (circular) (a DMSO control group was dispensed at 3.5×10^3 cells/well). […] The culture medium was removed, washed with PBS, and fixed with 4% paraformaldehyde at room temperature for 10 minutes. After washed three times with PBS, the cells were permeabilized with PBS-T containing 0.5% Triton X-100 for 10 minutes, washed with PBS-T three times for 10 minutes each, and then blocked with a blocking solution (PBS-T containing 5% BSA and 5% goat serum) for 1 hour. Thereafter, the cells were treated with anti-Tuj1 antibody (Cat. 801201, BioLegend) diluted 1/5000 in a blocking solution and incubated at 4° C. overnight. The next day, the cells were washed 10 times for 10 minutes each with PBS-T, and then treated with anti-mouse IgG-cy3 (Cat. 111-165-003, Jackson ImmunoResearch) diluted 1/2000 in a blocking solution, and incubated for 1 hour in dark conditions. Next, the cells were washed 10 times for 10 minutes each with PBS-T, mounted with a mounting solution containing DAPI, and then observed with a confocal microscope.

The target in experiment [4] is T1, CtBP1. In words: Immunoprecipitation, CtBP1 oligomerization in UCB-MSCs. To be noted: MTOB 300 μM. Type of experiment: cell-based. Further details: expressed in transfected cells; host or cells: human UCB-MSC. Here is the method:
To determine the effect of YJ102 on the regulation of oligomerization of C-terminal Binding Proteins (CtBPs) in human UCB-MSCs, immunoprecipitation analysis was performed. Specifically, UCB-MSCs were dispensed at 4×10^5 cells/ml in a 60 mm culture dish, and the next day, FLAG-CtBP1, HA-CtBP1, FLAG-CtBP2, and HA-CtBP1 were transfected into cells using 4 μl jetPRIME. Thereafter, the cells were treated with YJ102 (stock 30 mM in DMSO) and MTOB (stock 300 mM in DMSO) at 20 μM and 300 μM, respectively (Table 1). After 48 hours of transfection, proteins were extracted in the same manner as in Example 1-1. Protein G agarose slurry was washed with PBS and blocked with 1 ml of 1% BSA, washed with PBS, and added with 1 μg of anti-HA antibody diluted with 1.5 ml of PBS and incubated at 4° C. for 2 hours. Thereafter, the cells were centrifuged at 3,000×g for 2 minutes to remove the supernatant, washed with an IP150 buffer two times, added with 1 μg of the protein extracted above, and incubated at 4° C. overnight. After incubation, the cells were centrifuged at 3,000×g for 2 minutes to remove the supernatant, washed with PBS three times, added with 50 μl of 1 mg/ml HA peptide diluted with PBS, and incubated at room temperature for 10 minutes. […]

With `CCc1ccc(N(C(=O)CCC(=O)OC)c2nc3cc(Cl)ccc3o2)cc1` [YJ103], the “expression of Tuj1” value in the experiment with AD-MSC, in the experiment with UCB-MSC (Promo Cell), in the experiment with BM-MSC and with UCB-MSCs [3] was “increased” in each case. At CtBP1 [1], the “overexpressed CtBP1 (flag-CtBP1) protection from degradation by pronase (DARTS)” value is “protected”. For the same molecule, the “binding to CtBP1” value on CtBP1 [1] was “bound to CtBP1”. Further, the “cell proliferation (CellTiter-Glo)” value in the experiment on UCB-MSCs [2] is given as “reduced cell proliferation in a concentration-dependent manner”. Also, the “direct conversion from UCB-MSCs to ciNSC5” value with UCB-MSCs [3] is “induced direct conversion”.
With `O=C1C(SCCO)=C(SCCO)C(=O)c2ccccc21` [NSC95397], the “expression of Tuj1 in YJ102-treated ciNSC5” value in the experiment with human UCB-MSCs (10 μM NSC95397 with 30 μM YJ102, 5 days) is on record as “reduced”.
Turning to `CSCCC(=O)C(=O)O` [MTOB, 4-methylthio-2-oxobutanoate, reference compound], in the experiment with human UCB-MSCs (300 μM MTOB with 30 μM YJ102, 5 days), the “expression of Tuj1 in YJ102-treated ciNSC5” value is on record as “reduced”. The “YJ102-induced oligomerization of CtBP1” value on CtBP1 [4] is “inhibited”.
`CCc1ccc(N(C(=O)COC(C)=O)c2nc3cc(Cl)ccc3o2)cc1` [YJ101]: the “expression of Tuj1” value in the experiment on AD-MSC, with UCB-MSC (Promo Cell), with BM-MSC and in the experiment on UCB-MSCs [3] was “increased” each time. Also, the “overexpressed CtBP1 (flag-CtBP1) protection from degradation by pronase (DARTS)” value on CtBP1 [1] is listed as “protected”. Further, the “binding to CtBP1” value on CtBP1 [1] is reported as “bound to CtBP1”. Besides, the “cell proliferation (CellTiter-Glo)” value in the experiment on UCB-MSCs [2] is “reduced cell proliferation in a concentration-dependent manner”. Moreover, the “direct conversion from UCB-MSCs to ciNSC5” value in the experiment with UCB-MSCs [3] is recorded as “induced direct conversion”.

The values above are taken from patent US20250027041A1, “COMPOSITION FOR INDUCING TRANSDIFFERENTIATION AND STEM CELLS TREATED THEREWITH” (YJ CERAPEUTICS INC., priority 2021, published 2025).
